Laboratory results from ChEMBL document CHEMBL6127042, “Design, synthesis and antimycobacterial activity of novel benzothiazinones with improved water solubility” (Eur J Med Chem, 2024).
≈ marks a conversion by molar mass, not a printed value.

What was measured:
[1] = Selectivity index, ratio of CC50 for cytotoxicity against African green monkey Vero cells to MIC for antimycobacterial activity against multidrug resistant Mycobacterium tuberculosis 16833; assay type: toxicity, cell-based; details: read-out: Selectivity Index
[2] = system: Mycobacterium tuberculosis; experiment: Antitubercular activity against multidrug resistant Mycobacterium tuberculosis 16995 assessed as bacterial growth inhibition incubated for 7 days in 7H9 medium by alamar blue staining based microplate fluorometric analysis; assay type: functional; details: Mycobacterium tuberculosis, 16995, 168 h; time 7 day
[3] = system: Mycobacterium tuberculosis; experiment: Antitubercular activity against multidrug resistant Mycobacterium tuberculosis 16833 assessed as bacterial growth inhibition incubated for 7 days in 7H9 medium by alamar blue staining based microplate fluorometric analysis; assay type: functional; details: Mycobacterium tuberculosis, 16833, 168 h; time 7 day

SMILES	selectivity ratio [1]	MIC [2] [µM]	MIC [3] [µM]
O=C(O)CNC(=O)CCON=C1CCC(CN2CCN(c3nc(=O)c4cc(C(F)(F)F)cc([N+](=O)[O-])c4s3)CC2)CC1 (stereo not drawn)	> 496	0.425 (≈ 0.261 µg/mL)	0.21 (≈ 0.129 µg/mL)
CC(C)(C)OC(=O)NCCON=C1CCC(CN2CCN(c3nc(=O)c4cc(C(F)(F)F)cc([N+](=O)[O-])c4s3)CC2)CC1 (stereo not drawn)	> 4080	0.041 (≈ 0.0258 µg/mL)	< 0.025
CC(C)(C)OC(=O)CNC(=O)CCON=C1CCC(CN2CCN(c3nc(=O)c4cc(C(F)(F)F)cc([N+](=O)[O-])c4s3)CC2)CC1 (stereo not drawn)	> 1990	0.093 (≈ 0.0624 µg/mL)	0.048 (≈ 0.0322 µg/mL)
O=C(O)CCON=C1CCC(CN2CCN(c3nc(=O)c4cc(C(F)(F)F)cc([N+](=O)[O-])c4s3)CC2)CC1 (stereo not drawn)	> 542	0.221 (≈ 0.123 µg/mL)	0.212 (≈ 0.118 µg/mL)
O=C(O)CON=C1CCC(CN2CCN(c3nc(=O)c4cc(C(F)(F)F)cc([N+](=O)[O-])c4s3)CC2)CC1 (stereo not drawn)	> 2070	0.057 (≈ 0.031 µg/mL)	0.057 (≈ 0.031 µg/mL)
CC(C)(C)OC(=O)CNC(=O)C(C)(C)ON=C1CCC(CN2CCN(c3nc(=O)c4cc(C(F)(F)F)cc([N+](=O)[O-])c4s3)CC2)CC1 (stereo not drawn)	> 1400	0.066 (≈ 0.0452 µg/mL)	0.067 (≈ 0.0459 µg/mL)
C[C@H](NC(=O)CON=C1CCC(CN2CCN(c3nc(=O)c4cc(C(F)(F)F)cc([N+](=O)[O-])c4s3)CC2)CC1)C(=O)OC(C)(C)C (stereo partly drawn)	> 682	0.167 (≈ 0.112 µg/mL)	0.14 (≈ 0.0939 µg/mL)
CC(C)(C)OC(=O)CNC(=O)CON=C1CCC(CN2CCN(c3nc(=O)c4cc(C(F)(F)F)cc([N+](=O)[O-])c4s3)CC2)CC1 (stereo not drawn)	> 408	0.03 (≈ 0.0197 µg/mL)	0.239 (≈ 0.157 µg/mL)
O=C(O)CNC1CCC(CN2CCN(c3nc(=O)c4cc(C(F)(F)F)cc([N+](=O)[O-])c4s3)CC2)CC1 (stereo not drawn)	> 1390	0.095 (≈ 0.0503 µg/mL)	0.087 (≈ 0.0461 µg/mL)
C[C@H](NC(=O)C(C)(C)ON=C1CCC(CN2CCN(c3nc(=O)c4cc(C(F)(F)F)cc([N+](=O)[O-])c4s3)CC2)CC1)C(=O)OC(C)(C)C (stereo partly drawn)	> 3980	0.03 (≈ 0.021 µg/mL)	< 0.023
CC(C)(ON=C1CCC(CN2CCN(c3nc(=O)c4cc(C(F)(F)F)cc([N+](=O)[O-])c4s3)CC2)CC1)C(=O)O (stereo not drawn)	> 299	0.109 (≈ 0.0623 µg/mL)	0.375 (≈ 0.214 µg/mL)
CC(C)(C)OC(=O)CCON=C1CCC(CN2CCN(c3nc(=O)c4cc(C(F)(F)F)cc([N+](=O)[O-])c4s3)CC2)CC1 (stereo not drawn)	> 3370	0.068 (≈ 0.0417 µg/mL)	0.031 (≈ 0.019 µg/mL)
NNC(=O)c1ccncc1 [ISONIAZID]		> 72.9	> 72.9
O=c1nc(N2CCN(CC3CCCCC3)CC2)sc2c([N+](=O)[O-])cc(C(F)(F)F)cc12 [MACOZINONE]	> 4010	< 0.035	< 0.035
CO[C@H]1/C=C/O[C@@]2(C)Oc3c(C)c(O)c4c(O)c(c(/C=N/N5CCN(C)CC5)c(O)c4c3C2=O)NC(=O)/C(C)=C\C=C\[C@H](C)[C@H](O)[C@@H](C)[C@@H](O)[C@@H](C)[C@H](OC(C)=O)[C@@H]1C [RIFAMPIN]		> 12.2	> 12.2
